ChEMBL document CHEMBL1201862, “PubChem BioAssay data set” (2004)
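Grown in 96-well plates, cells were treated for 48 hours with each compound at five concentrations. Insufficient inhibition: endpoint recorded as highest concentration tested. GI50: concentration for 50% inhibition of growth.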 Calls of active or inactive are those of the source. No stated cut-off is given here; in the data, active = GI50 up to about 1.1 µM and inactive = higher.

How the values were obtained:
Experiment in all cases: growth of human tumour cells (NCI), 48 h
NCI-H226 = tested on: NCI-H226
OVCAR-8 = tested on: OVCAR-8
HCT-15 = tested on: HCT-15
SK-MEL-2 = tested on: SK-MEL-2
NCI-H23 = tested on: NCI-H23
CAKI-1 = tested on: CAKI-1
COLO 205 = tested on: COLO 205
UACC-62 = tested on: UACC-62
NCI-H522 = tested on: NCI-H522
MOLT-4 = tested on: MOLT-4
HCC 2998 = tested on: HCC 2998
U-251 = tested on: U-251
K562 = tested on: K562
SK-OV-3 = tested on: SK-OV-3
SN12C = tested on: SN12C
SNB-75 = tested on: SNB-75
TK-10 = tested on: TK-10
ACHN = tested on: ACHN
RXF 393 = tested on: RXF 393

Row | Structure (SMILES) | GI50 (NCI-H226) | GI50 (OVCAR-8) | GI50 (HCT-15) [µM] | GI50 (SK-MEL-2) | GI50 (NCI-H23) | GI50 (CAKI-1) | GI50 (COLO 205) | GI50 (UACC-62) | GI50 (NCI-H522) | GI50 (MOLT-4) | GI50 (HCC 2998) | GI50 (U-251) | GI50 (K562) | GI50 (SK-OV-3) | GI50 (SN12C) | GI50 (SNB-75) | GI50 (TK-10) | GI50 (ACHN) | GI50 (RXF 393)
1 | CCN1C(=O)N2C(OC)c3ccccc3C(Br)C2(OC)C1=O (stereo not given) | > 100 µM (inactive) | > 100 µM (inactive) | > 100 | > 100 µM (inactive) | > 100 µM (inactive) | > 100 µM (inactive) | > 100 µM (inactive) | > 100 µM (inactive) | > 100 µM (inactive) | > 100 µM (inactive) | > 100 µM (inactive) | > 100 µM (inactive) | > 100 µM (inactive) | > 100 µM (inactive) | > 100 µM (inactive) | 48.3 µM (inactive) | > 100 µM (inactive) | – | –
2 | NC(CCCCNC(=O)C(Cc1ccccc1)NC(=O)OCc1ccccc1)C(=O)NC(CCCCNC(=O)C(Cc1ccccc1)NC(=O)OCc1ccccc1)C(=O)NC(CCCCNC(=O)C(Cc1ccccc1)NC(=O)OCc1ccccc1)C(=O)NC(CCCCNC(=O)C(Cc1ccccc1)NC(=O)OCc1ccccc1)C(=O)NC(CCCCNC(=O)C(Cc1ccccc1)NC(=O)OCc1ccccc1)C(=O)NC(CCCCNC(=O)C(Cc1ccccc1)NC(=O)OCc1ccccc1)C(=O)O (stereo not given) | > 100 µM (inactive) | > 100 µM (inactive) | > 100 | > 100 µM (inactive) | > 100 µM (inactive) | > 100 µM (inactive) | – | > 100 µM (inactive) | > 100 µM (inactive) | > 100 µM (inactive) | > 100 µM (inactive) | > 100 µM (inactive) | > 100 µM (inactive) | – | > 100 µM (inactive) | > 100 µM (inactive) | > 100 µM (inactive) | > 100 µM (inactive) | –
3 | COC(OC)(c1ccccc1)C(Br)Br | > 100 µM (inactive) | > 100 µM (inactive) | 17.1 | > 100 µM (inactive) | > 100 µM (inactive) | 24.6 µM (inactive) | 17.3 µM (inactive) | 55.1 µM (inactive) | 17.8 µM (inactive) | 16.1 µM (inactive) | > 100 µM (inactive) | > 100 µM (inactive) | 13.9 µM (inactive) | > 100 µM (inactive) | > 100 µM (inactive) | 81.1 µM (inactive) | – | > 100 µM (inactive) | –
4 | CC1(C)OC2C(CO)OC(N/C(=N/C#N)Oc3ccccc3)C2O1 (stereo not given) | > 100 µM (inactive) | > 100 µM (inactive) | > 100 | – | > 100 µM (inactive) | – | > 100 µM (inactive) | > 100 µM (inactive) | – | > 100 µM (inactive) | > 100 µM (inactive) | > 100 µM (inactive) | > 100 µM (inactive) | > 100 µM (inactive) | > 100 µM (inactive) | 75.9 µM (inactive) | > 100 µM (inactive) | > 100 µM (inactive) | > 100 µM (inactive)
5 | CN1CCCC2[C@@H]3CCC4c5nonc5CC[C@]4(C)C3CC[C@@]21C (stereo not given in full) | > 100 µM (inactive) | > 100 µM (inactive) | 57.7 | > 100 µM (inactive) | > 100 µM (inactive) | > 100 µM (inactive) | > 100 µM (inactive) | 24.7 µM (inactive) | > 100 µM (inactive) | > 100 µM (inactive) | – | > 100 µM (inactive) | 67.8 µM (inactive) | 17.9 µM (inactive) | 98.6 µM (inactive) | 23.4 µM (inactive) | > 100 µM (inactive) | > 100 µM (inactive) | 50.1 µM (inactive)
6 | Cc1nn(C(=O)Cc2ccccc2)c2c1C(c1ccc3ccccc3c1O)SC(=N)N2 (stereo not given) | > 100 µM (inactive) | > 100 µM (inactive) | > 100 | – | > 100 µM (inactive) | > 100 µM (inactive) | > 100 µM (inactive) | > 100 µM (inactive) | 67.8 µM (inactive) | 37.8 µM (inactive) | > 100 µM (inactive) | – | > 100 µM (inactive) | > 100 µM (inactive) | > 100 µM (inactive) | 52.1 µM (inactive) | > 100 µM (inactive) | > 100 µM (inactive) | –
